In patent US7135625B2, “Gene concerning brassinosteroid-sensitivity of plants and utilization thereof” (National Institute of Agrobiological Sciences, priority 2000, dated 2006):

Experiments:
Format in all cases: in vivo, Oriza sativa
[1] = tested on: d61-1 and d61-2 mutant seedlings; experiment: Germination of seeds on agar plates with or without brassinolide, d61 mutants; conditions: 1 μM brassinolide on agar plates, observed 1 day after germination
Procedure: (§1) Rice (Oriza sativa) seeds were soaked in distilled water and made to imbibe for 48 h at 30° C. After washing the seeds with distilled water several times, the seeds were germinated in a dark chamber at 30° C. for 8 days. Rice plants were grown in the field or in the greenhouse at 30° C. (day) and 24° C. (night).
(§2) Next, seeds of the wild type and mutant plants were germinated on agar plates with or without 1 μM brassinolide. The characteristics of whole seedlings were observed 1 day after germination.

d61 mutants = experiment: Restoration of dwarfism of d61 mutants by application of brassinolide
[2] = tested on: wild type plants (rice seedlings); experiment: Germination of seeds on agar plates with or without brassinolide, wild type; conditions: 1 μM brassinolide on agar plates, observed 1 day after germination
Procedure: as §1, §2

[3] = tested on: d61-1 mutant and d61-2 mutant; experiment: Lamina joint test, d61 mutants
From the text: (§3) The degree of bending between the leaf blade and leaf sheath in rice is well known to be sensitive to the concentration of brassinolide or its related compounds. This unusual character of rice leaf is the basis for a quantitative bioassay for brassinosteroids, known as the lamina joint test (Wada, Ketal. (1981) Plant and Cell Physiol. 22, 323–325), even though the biological function of endogenous brassinosteroids in monocotyledonous plants including rice remains unknown. If the mutants are less sensitive to brassinosteroids, the degree of bending between the leaf blade and sheath of the mutant plants will be less than that of the wild type plants.
(§4) Lamina joints of first leave of wild type T65 plant (the background strain of the mutants), d61-1 mutant, and d61-2 mutant were tested with 10^−3 and 10^−2 μg/ml of brassinosteroids, respectively.

OsBRI1 mRNA = experiment: Effect of exogenous brassinolide on the level of OsBRI1 mRNA (RNA hybridization); conditions: light- and dark-grown seedlings, 0.9% agar plates with 1 μM brassinolide, six days
From the text: RNA was isolated from various rice tissues as described in literature (Chomczynski, P. and Sacchi, N.: Anal. Biochem. (1987) 162:156). Ten μg of total RNA were electrophoresed in a 1% agarose gel, then transferred to a Hybond N^+ membrane (Amersham), and analyzed by RNA gel blot hybridization. The present inventors used a partial cDNA fragment (Ser^740 to Asp^1116 corresponding to the kinase domain), as a probe which specifically hybridized to the genomic DNA fragment encoding OsBRI1. DNA hybridization analysis was performed with the same probe and hybridization conditions as described above.
The present inventors also tested the effects of exogenously applied brassinolide and light on the level of OsBRI1 mRNA. Germinating seeds were placed on 0.9% agar plates with or without 1 μM brassinolide and grown for six days in the light or dark.

wild type T65 plant = experiment: Lamina joint test, wild type; conditions: wild type T65, first leaf, 10^−3 and 10^−2 μg/ml
From the text: as §3, §4

Structure (SMILES): CC(C)[C@H](C)[C@@H](O)[C@H](O)[C@@H](C)[C@H]1CC[C@H]2[C@@H]3COC(=O)[C@H]4C[C@H](O)[C@H](O)C[C@]4(C)[C@H]3CC[C@]12C [brassinolide]
- growth of seedlings [1]: normal growth patterns
- growth of seedlings ([1]; listed as BL): not affected
- restoration of the dwarfism of the d61 mutants (d61 mutants): could not be achieved
- growth of seedlings (coleoptile, foliage leaves) [2]: elongated abnormally
- root elongation [2]: inhibited
- growth of seedlings (coleoptile, foliage leaves) ([2]; listed as BL): induced abnormal growth
- degree of bending between leaf blade and leaf sheath ([3]; d61-1 and d61-2 mutants, first leaf, 10^−3 and 10^−2 μg/ml): degree of bending increased
- degree of bending between leaf blade and leaf sheath ([3]; d61-2 mutant, 10^−2 μg/ml brassinolide): bent at less than a right angle
- level of OsBRI1 expression (OsBRI1 mRNA): reduced level of OsBRI1 expression
- degree of bending between leaf blade and leaf sheath (wild type T65 plant): even more bent
